Results from ChEMBL document CHEMBL4219247, “Inhibitors of dihydrofolate reductase as antitumor agents: design, synthesis and biological evaluation of a series of novel nonclassical 6-substituted pyrido[3,2-d]pyrimidines with a three- to five-carbon bridge” (Bioorg Med Chem, 2018).

What was measured:
HL-60 [1] = experiment: Antiproliferative activity against human HL60 cells after 48 hrs by MTS assay; type: functional, cell-based; conditions: HL-60, 48 h
HCT-116 = experiment: Antiproliferative activity against human HCT116 cells after 48 hrs by MTS assay; type: functional, cell-based; conditions: HCT-116, 48 h
HeLa = experiment: Antiproliferative activity against human HeLa cells after 48 hrs by MTS assay
Dihydrofolate reductase = biological target: T1, Dihydrofolate reductase (Homo sapiens, UniProt P00374); experiment: Inhibition of recombinant human DHFR using dihydrofolate as substrate after 15 mins in presence of NADPH
T1 sequence (P00374 whole entry): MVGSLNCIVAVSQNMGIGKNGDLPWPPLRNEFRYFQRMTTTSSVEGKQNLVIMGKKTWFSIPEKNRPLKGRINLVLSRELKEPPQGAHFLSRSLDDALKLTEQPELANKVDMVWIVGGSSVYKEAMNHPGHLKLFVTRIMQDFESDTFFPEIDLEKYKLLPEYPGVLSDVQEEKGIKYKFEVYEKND

HL-60 [2] = experiment: Cell cycle arrest in human HL60 cells assessed as accumulation at G1 phase at 1 uM after 24 hrs by propidium iodide staining based flow cytometry (reference value: 28.69%); type: functional
HL-60 [3] = experiment: Cell cycle arrest in human HL60 cells assessed as accumulation at S phase at 1 uM after 24 hrs by propidium iodide staining based flow cytometry (reference value: 57.76%); type: functional
HL-60 [4] = experiment: Cell cycle arrest in human HL60 cells assessed as accumulation at G2 phase at 1 uM after 24 hrs by propidium iodide staining based flow cytometry (reference value: 13.56%); type: functional
HL-60 [5] = experiment: Cell cycle arrest in human HL60 cells assessed as accumulation at G1 phase at 4 uM after 24 hrs by propidium iodide staining based flow cytometry (reference value: 28.69%); type: functional
HL-60 [6] = experiment: Cell cycle arrest in human HL60 cells assessed as accumulation at S phase at 4 uM after 24 hrs by propidium iodide staining based flow cytometry (reference value: 57.76%); type: functional
HL-60 [7] = experiment: Cell cycle arrest in human HL60 cells assessed as accumulation at G2 phase at 4 uM after 24 hrs by propidium iodide staining based flow cytometry (reference value: 13.56%); type: functional
HL-60 [8] = experiment: Induction of apoptosis in human HL60 cells assessed as necrotic cells at 0.1 uM after 24 hrs by Annexin V-FITC/propidium iodide staining based flow cytometry (reference value: 2.36%); type: functional
HL-60 [9] = experiment: Induction of apoptosis in human HL60 cells assessed as late apoptotic cells at 0.1 uM after 24 hrs by Annexin V-FITC/propidium iodide staining based flow cytometry (reference value: 4.84%); type: functional
HL-60 [10] = experiment: Induction of apoptosis in human HL60 cells assessed as live cells at 0.1 uM after 24 hrs by Annexin V-FITC/propidium iodide staining based flow cytometry (reference value: 90.7%); type: functional
HL-60 [11] = experiment: Induction of apoptosis in human HL60 cells assessed as early apoptotic cells at 0.1 uM after 24 hrs by Annexin V-FITC/propidium iodide staining based flow cytometry (reference value: 2.09%); type: functional
HL-60 [12] = experiment: Induction of apoptosis in human HL60 cells assessed as necrotic cells at 0.2 uM after 24 hrs by Annexin V-FITC/propidium iodide staining based flow cytometry (reference value: 2.36%); type: functional
HL-60 [13] = experiment: Induction of apoptosis in human HL60 cells assessed as late apoptotic cells at 0.2 uM after 24 hrs by Annexin V-FITC/propidium iodide staining based flow cytometry (reference value: 4.84%); type: functional
HL-60 [14] = experiment: Induction of apoptosis in human HL60 cells assessed as live cells at 0.2 uM after 24 hrs by Annexin V-FITC/propidium iodide staining based flow cytometry (reference value: 90.7%); type: functional
HL-60 [15] = experiment: Induction of apoptosis in human HL60 cells assessed as early apoptotic cells at 0.2 uM after 24 hrs by Annexin V-FITC/propidium iodide staining based flow cytometry (reference value: 2.09%); type: functional
HL-60 [16] = experiment: Upregulation of DHFR protein level in human HL60 cells after 48 hrs by Western blot method; type: functional, cell-based
HL-60 [17] = experiment: Upregulation of DHFR protein level in human HL60 cells at 0.125 uM after 48 hrs by Western blot method relative to control; type: functional
HL-60 [18] = experiment: Upregulation of DHFR protein level in human HL60 cells at 0.25 uM after 48 hrs by Western blot method relative to control; type: functional
HL-60 [19] = experiment: Upregulation of DHFR protein level in human HL60 cells at 0.5 uM after 48 hrs by Western blot method relative to control; type: functional

| SMILES | IC50 (HL-60 [1]) [µM] | IC50 (HCT-116) [µM] | IC50 (HeLa) [µM] | IC50 (Dihydrofolate reductase) [µM] | further results |
| --- | --- | --- | --- | --- | --- |
| Nc1nc(N)c2nc(/C=C/C=C/c3ccccc3)ccc2n1 | 6.79 | 17.7 | 14.9 | 12.3 |  |
| Nc1nc(N)c2nc(CCCCc3ccccc3)ccc2n1 | 0.59 | 11 | 47.1 | 0.61 |  |
| Nc1nc(N)c2nc(CCC(=O)CCc3ccccc3)ccc2n1 | 3.74 | 32.8 | 77.5 | 7.93 |  |
| Nc1nc(N)c2nc(CCC(O)c3ccccc3)ccc2n1 (stereo not drawn) | 1.52 | 17.3 | 74.8 | 2.73 |  |
| Nc1nc(N)c2nc(CCC(=O)c3ccccc3)ccc2n1 | 8.12 | 20.9 | 85.6 | 11.2 |  |
| Nc1nc(N)c2nc(/C=C/Cc3ccccc3)ccc2n1 | 0.35 | 13.3 | 25.3 | 0.59 |  |

The next lines start with results.

| IC50 (HL-60 [1]) [µM] | IC50 (HCT-116) [µM] | IC50 (HeLa) [µM] | IC50 (Dihydrofolate reductase) [µM] | SMILES | further results |
| --- | --- | --- | --- | --- | --- |
| 0.2 | 9.56 | 49.1 | 0.06 | Nc1nc(N)c2nc(CCCc3ccccc3)ccc2n1 | Activity (HL-60 [2]): 24.26%; Activity (HL-60 [3]): 62.39%; Activity (HL-60 [4]): 13.35%; Activity (HL-60 [5]): 19.34%; Activity (HL-60 [6]): 80.66%; Activity (HL-60 [7]): 0%; Activity (HL-60 [8]): 2.21%; Activity (HL-60 [9]): 6.69%; Activity (HL-60 [10]): 87.64%; Activity (HL-60 [11]): 3.45%; Activity (HL-60 [12]): 5.96%; Activity (HL-60 [13]): 11.06%; Activity (HL-60 [14]): 76.35%; Activity (HL-60 [15]): 6.63%; Activity (HL-60 [16]): Dose-dependent effect; fold change (FC) (HL-60 [17]): 1.03; fold change (FC) (HL-60 [18]): 1.62; fold change (FC) (HL-60 [19]): 1.98 |
| 0.025 | 0.13 |  |  | CN(Cc1cnc2nc(N)nc(N)c2n1)c1ccc(C(=O)N[C@@H](CCC(=O)O)C(=O)O)cc1 [METHOTREXATE] |  |
| 1.23 | 20.6 | 65.1 | 2.53 | Nc1nc(N)c2nc(CCC(O)CCc3ccccc3)ccc2n1 (stereo not drawn) |  |
| 1.31 | 15.3 | 17.6 | 2.1 | Nc1nc(N)c2nc(/C=C/CCCc3ccccc3)ccc2n1 |  |
| 0.78 | 11.7 | 40.8 | 0.7 | Nc1nc(N)c2nc(CCCCCc3ccccc3)ccc2n1 |  |
| 1.08 | 12 | 3.7 | 70.5 | Nc1nc(N)c2nc(/C=C/C(=O)/C=C/c3ccccc3)ccc2n1 |  |
| 1.5 | 10.2 | 3.28 | > 100 | Nc1nc(N)c2nc(/C=C/C(=O)c3ccccc3)ccc2n1 |  |
